assay: recombinant barcode read abundance after kanamycin selection (control-corrected) (log10(CPM+1)); higher = more efficient recombination; sequences stand for … in AGTGCAGAGAAAATCGGCCAGTTTTCTCTGCCTGCAGTCCGCATGCCGT…AGATTTATGCAGCGGACTGCCTTTCTCCCAAAGTGATAAACCGGACAGTATCATGGACCGGTTTTCCCGGTAATCCGTATTTGCAAGGTTGGTTTCACT; site = the 11-nt target
How it was run: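 For this pooled screen, each oligo contained a promoter, a target, a barcode and the J23119-driven first 104 bases of the bridge RNA. Gibson cloning placed it into a vector supplying the remaining 73 bp and a T7-inducible recombinase, and the pool was co-electroporated into E. coli with a donor plasmid. Recombination efficiency is derived from barcode counts per million at recombinant junctions after averaging and control correction, and is expressed on a log scale as log10(CPM+1), with selection on chloramphenicol/ampicillin/kanamycin plus 0.1 mM IPTG against a chloramphenicol/ampicillin LB agar control.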
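Also: IS621 recombinase and bridge RNA in Escherichia coli cells.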

First: ATAAAACCTTGGGTTCTAACCTGTTGCCT (site CTAAAACCTAG)
Second: ATAAAACCTTGGGTTCTAACCTGTTGCCT (site GTAAAACCTAG)
The “recombinant barcode read abundance (log10)” value of the first is higher: 0.64 for the first, 0.114 for the second.

Going from “ATAAAACCTTGGGTTCTAACCTGTTGCCT (site TTAAAACCTAG)” to “ATAAAGCCTTGGGTTCTAACCTGTTGCCT (site ATAAAGCCTAG)”, the “recombinant barcode read abundance (log10)” value rises from 0.244 to 2.05.

Going from “ATAAAGCCTTGGGTTCTAACCTGTTGCCT (site ATAAGGCCTAG)” to “ATAAATCCTTGGGTTCTAACCTGTTGCCT (site ATAAATCCTAG)”, the “recombinant barcode read abundance (log10)” value rises from 0.0177 to 0.632.

“ATAAATCCTTGGGTTCTAACCTGTTGCCT (site CTAAATCCTAG)” and “ATAAATCCTTGGGTTCTAACCTGTTGCCT (site GTAAATCCTAG)” are within 0.2 log units of each other in “recombinant barcode read abundance (log10)” value: 0.126 for the first, 0.0609 for the second.

Going from “ATAAATCCTTGGGTTCTAACCTGTTGCCT (site TTAAATCCTAG)” to “ATAACTACTTGGGTTCTAACCTGTTGCCA (site ATAACTACTTG)”, the “recombinant barcode read abundance (log10)” value rises from 0.0804 to 0.462.

Going from “ATAACTACTTGGGTTCTAACCTGTTGCCA (site ATGTCTACTTG)” to “ATACAATCTTGGGTTCTAACCTGTTGCCT (site ATACAATCTAG)”, the “recombinant barcode read abundance (log10)” value rises from 0.299 to 1.13.

“ATACAATCTTGGGTTCTAACCTGTTGCCT (site CTACAATCTAG)” and “ATACAATCTTGGGTTCTAACCTGTTGCCT (site GTACAATCTAG)” are within 0.2 log units of each other in “recombinant barcode read abundance (log10)” value: 0.127 for the first, 0.0425 for the second.

“ATACAATCTTGGGTTCTAACCTGTTGCCT (site TTACAATCTAG)” and “ATACCATCTTGGGTTCTAACCTGTTGCCT (site ATACCATCTAG)” are within 0.2 log units of each other in “recombinant barcode read abundance (log10)” value: 0.202 for the first, 0.031 for the second.

Going from “ATACCATCTTGGGTTCTAACCTGTTGCCT (site ATCCCATCTAG)” to “ATACCATCTTGGGTTCTAACCTGTTGCCT (site ATGCCATCTAG)”, the “recombinant barcode read abundance (log10)” value rises from 0.173 to 0.855.

First: ATACCATCTTGGGTTCTAACCTGTTGCCT (site ATTCCATCTAG)
Second: ATACGGACTTGGGTTCTAACCTGTTGCAG (site ATACGGACTCT)
The “recombinant barcode read abundance (log10)” value of the first is lower: 0.34 for the first, 2.77 for the second.

Compared with “ATACGGACTTGGGTTCTAACCTGTTGCAG (site ATATGTACTCT)”, “ATACGTTCTTGGGTTCTAACCTGTTGCAT (site ATACGTTCTAT)” is higher in “recombinant barcode read abundance (log10)” value: 0.198 for the first, 1.12 for the second.

Going from “ATACGTTCTTGGGTTCTAACCTGTTGCAT (site CAGGTCCCTCG)” to “ATACTAACTTGGGTTCTAACCTGTTGCCT (site AAACTAACTAG)”, the “recombinant barcode read abundance (log10)” value falls from 0.354 to 0.0718.

Going from “ATACTAACTTGGGTTCTAACCTGTTGCCT (site ACACTAACTAG)” to “ATACTAACTTGGGTTCTAACCTGTTGCCT (site AGACTAACTAG)”, the “recombinant barcode read abundance (log10)” value falls from 0.477 to 0.0472.

Going from “ATACTAACTTGGGTTCTAACCTGTTGCCT (site ATACTAACTAG)” to “ATAGAGTCTTGGGTTCTAACCTGTTGCTT (site AGAGAGTCTAA)”, the “recombinant barcode read abundance (log10)” value falls from 1.7 to 0.352.

Going from “ATAGAGTCTTGGGTTCTAACCTGTTGCTT (site ATAGAGTCTAA)” to “ATAGCAACTTGGGTTCTAACCTGTTGCCT (site ATAGCAACTAG)”, the “recombinant barcode read abundance (log10)” value falls from 2.52 to 0.64.

“ATAGCAACTTGGGTTCTAACCTGTTGCCT (site ATAGCCACTAG)” and “ATAGCAACTTGGGTTCTAACCTGTTGCCT (site ATAGCGACTAG)” are within 0.2 log units of each other in “recombinant barcode read abundance (log10)” value: 0.11 for the first, 0.0185 for the second.

“ATAGCAACTTGGGTTCTAACCTGTTGCCT (site ATAGCTACTAG)” and “ATAGCTACTTGGGTTCTAACCTGTTGCCT (site ATAGCAACTAG)” are within 0.2 log units of each other in “recombinant barcode read abundance (log10)” value: 0.0705 for the first, 0.142 for the second.

“ATAGCTACTTGGGTTCTAACCTGTTGCCT (site ATAGCCACTAG)” and “ATAGCTACTTGGGTTCTAACCTGTTGCCT (site ATAGCGACTAG)” are within 0.2 log units of each other in “recombinant barcode read abundance (log10)” value: 0.248 for the first, 0.0534 for the second.

First: ATAGCTACTTGGGTTCTAACCTGTTGCCT (site ATAGCTACTAG)
Second: ATAGGACCTTGGGTTCTAACCTGTTGCCG (site ATAGGACCTCG)
The “recombinant barcode read abundance (log10)” value of the first is lower: 1.2 for the first, 2.36 for the second.

“ATAGGACCTTGGGTTCTAACCTGTTGCCG (site ATAGGACCTTG)” and “ATAGGTTCTTGGGTTCTAACCTGTTGCCT (site AAAGGTTCTAG)” are within 0.2 log units of each other in “recombinant barcode read abundance (log10)” value: 0.143 for the first, 0.0456 for the second.

“ATAGGTTCTTGGGTTCTAACCTGTTGCCT (site ACAGGTTCTAG)” and “ATAGGTTCTTGGGTTCTAACCTGTTGCCT (site AGAGGTTCTAG)” are within 0.2 log units of each other in “recombinant barcode read abundance (log10)” value: 0.0769 for the first, 0.0854 for the second.

Going from “ATAGGTTCTTGGGTTCTAACCTGTTGCCT (site ATAGGTTCTAG)” to “ATATGGACTTGGGTTCTAACCTGTTGCTA (site ATAAGGACTTA)”, the “recombinant barcode read abundance (log10)” value falls from 1.49 to 0.65.

First: ATATGGACTTGGGTTCTAACCTGTTGCTA (site ATACGGACTTA)
Second: ATATGGACTTGGGTTCTAACCTGTTGCTA (site ATAGGGACTTA)
The “recombinant barcode read abundance (log10)” value of the first is higher: 1.34 for the first, 0.159 for the second.

First: ATATGGACTTGGGTTCTAACCTGTTGCTA (site ATATGGACTTA)
Second: ATATGGGCTTGGGTTCTAACCTGTTGCCG (site ATATGAGCTCG)
The “recombinant barcode read abundance (log10)” value of the first is higher: 1.62 for the first, 0.369 for the second.

First: ATATGGGCTTGGGTTCTAACCTGTTGCCG (site ATATGCGCTCG)
Second: ATATGGGCTTGGGTTCTAACCTGTTGCCG (site ATATGGGCTCG)
The “recombinant barcode read abundance (log10)” value of the first is lower: 0.0627 for the first, 1.52 for the second.

Compared with “ATATGGGCTTGGGTTCTAACCTGTTGCCG (site ATATGTGCTCG)”, “ATATTGCCTTGGGTTCTAACCTGTTGCCT (site ATATTGCCTAG)” is higher in “recombinant barcode read abundance (log10)” value: 0.1 for the first, 1.67 for the second.

“ATATTGCCTTGGGTTCTAACCTGTTGCCT (site ATATTGTCTTG)” and “ATATTTCCTTGGGTTCTAACCTGTTGCCT (site AAATTTCCTAG)” are within 0.2 log units of each other in “recombinant barcode read abundance (log10)” value: 0.0732 for the first, 0.0146 for the second.

“ATATTTCCTTGGGTTCTAACCTGTTGCCT (site ACATTTCCTAG)” and “ATATTTCCTTGGGTTCTAACCTGTTGCCT (site AGATTTCCTAG)” are within 0.2 log units of each other in “recombinant barcode read abundance (log10)” value: 0.0246 for the first, 0.163 for the second.

Compared with “ATATTTCCTTGGGTTCTAACCTGTTGCCT (site ATATTTCCTAG)”, “ATCCAGCCTTGGGTTCTAACCTGTTGCCT (site ATCCAACCTAG)” is higher in “recombinant barcode read abundance (log10)” value: 0.785 for the first, 1.16 for the second.

First: ATCCAGCCTTGGGTTCTAACCTGTTGCCT (site ATCCACCCTAG)
Second: ATCCAGCCTTGGGTTCTAACCTGTTGCCT (site ATCCAGCCTAG)
The “recombinant barcode read abundance (log10)” value of the first is lower: 0.0824 for the first, 1.7 for the second.

“ATCCAGCCTTGGGTTCTAACCTGTTGCCT (site ATCCATCCTAG)” and “ATCCCACCTTGGGTTCTAACCTGTTGCGG (site ATACTACCTCC)” are within 0.2 log units of each other in “recombinant barcode read abundance (log10)” value: 0.0724 for the first, 0.0321 for the second.

Compared with “ATCCCACCTTGGGTTCTAACCTGTTGCGG (site ATCCCACCTCC)”, “ATCCTAGCTTGGGTTCTAACCTGTTGCCG (site ATCCTAGCTCG)” is lower in “recombinant barcode read abundance (log10)” value: 1.89 for the first, 1.58 for the second.

“ATCCTAGCTTGGGTTCTAACCTGTTGCCG (site TTCCTAGCTTG)” and “ATCGCTCCTTGGGTTCTAACCTGTTGCCT (site AACGCTCCTAG)” are within 0.2 log units of each other in “recombinant barcode read abundance (log10)” value: 0.299 for the first, 0.128 for the second.

“ATCGCTCCTTGGGTTCTAACCTGTTGCCT (site ACCGCTCCTAG)” and “ATCGCTCCTTGGGTTCTAACCTGTTGCCT (site AGCGCTCCTAG)” are within 0.2 log units of each other in “recombinant barcode read abundance (log10)” value: 0.115 for the first, 0.122 for the second.

Going from “ATCGCTCCTTGGGTTCTAACCTGTTGCCT (site ATCGCTCCTAG)” to “ATCGGATCTTGGGTTCTAACCTGTTGCCT (site ATCGGAACTAG)”, the “recombinant barcode read abundance (log10)” value falls from 2.12 to 0.195.

“ATCGGATCTTGGGTTCTAACCTGTTGCCT (site ATCGGACCTAG)” and “ATCGGATCTTGGGTTCTAACCTGTTGCCT (site ATCGGAGCTAG)” are within 0.2 log units of each other in “recombinant barcode read abundance (log10)” value: 0.0656 for the first, 0.232 for the second.

Going from “ATCGGATCTTGGGTTCTAACCTGTTGCCT (site ATCGGATCTAG)” to “ATCGGCCCTTGGGTTCTAACCTGTTGCTG (site ATCGGCCCTCA)”, the “recombinant barcode read abundance (log10)” value rises from 0.678 to 2.07.

First: ATCGGCCCTTGGGTTCTAACCTGTTGCTG (site GTGGGCCCTCA)
Second: ATCTAAACTTGGGTTCTAACCTGTTGCCT (site ATCTAAACTAG)
The “recombinant barcode read abundance (log10)” value of the first is lower: 0.0497 for the first, 0.842 for the second.

With “ATCTAAACTTGGGTTCTAACCTGTTGCCT (site CGAGTCCCTCT)” the “recombinant barcode read abundance (log10)” value was 0.105.
